Laboratory results from publication PMC5732813, “Novel piplartine-containing ruthenium complexes: synthesis, cell growth inhibition, apoptosis induction and ROS production on HCT116 cells” (Oncotarget, 2017).
“And” between values parts separate entries of the source, which are not always exact repeats. Equal entries are not always repeated.

What was measured:
HCT116 cells = experiment: Gene expression analysis by qPCR array (TaqMan Array Human Molecular Mechanisms of Cancer); format: cell-based; settings: HCT116, 12 h; DOX 1 μM, PL 10 μM, 1 2.5 μM, 2 5 μM; negative control RQ = 1.0
In short: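 HCT116 cells (7x10^4 cells/mL) were exposed to the complexes for 12 h before total RNA isolation and reverse transcription. Expression was profiled by TaqMan qPCR array with 40 cycles (3 s 95 °C, 30 s 60 °C), normalized to GAPDH, 18S and HPRT1.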

[1] = test system: B16-F10 (murine melanoma); experiment: Cytotoxic activity, alamar blue assay, B16-F10; format: cell-based
[2] = test system: cancer multicellular spheroids formed from HCT116 cells; experiment: 3D multicellular spheroids culture, alamar blue assay; format: cell-based, human
In short: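 HCT116 spheroids formed from 0.5 × 10^6 cells/mL on cell-repellent plates in RPMI 1640 with 10% FBS, 2 mM glutamine and 3% matrigel at 37°C, 5% CO2. Vehicle served as negative control. Endpoints: light-microscopy morphology and alamar blue viability.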

[3] = test system: WT SV40 MEF (wild-type immortalized mouse embryonic fibroblast); experiment: Cytotoxic activity, alamar blue assay, WT SV40 MEF; format: cell-based; settings: WT SV40 MEF, 72 h incubation, alamar blue; read-out: IC50

In the case of “[Ru(piplartine)(dppf)(bipy)](PF6)2 [Complex 1]”, the “RQ ABL1” value (HCT116 cells) is reported as 1.302, the “RQ AKT1” value (HCT116 cells) is reported as 1.469 and the “RQ AKT2” value (HCT116 cells) is reported as 1.663. The “RQ APC” value (HCT116 cells) was 0.972, the “RQ BAX” value (HCT116 cells) was 1.572 and the “RQ BCAR1” value (HCT116 cells) was 1.687. For the same substance, the “RQ BCL2” value (HCT116 cells) was 2.4 and 2.367, the “RQ BCL2L1” value (HCT116 cells) was 1.936 and the “RQ BCL2L11” value (HCT116 cells) was 1.710. The “RQ BID” value (HCT116 cells) was 0.743, the “RQ BRAF” value (HCT116 cells) was 1.072 and the “RQ CASP8” value (HCT116 cells) was 1.583. For the same substance, the “RQ CCND1” value (HCT116 cells) was 1.2 and 1.153, the “RQ CCND3” value (HCT116 cells) was 1.447 and the “RQ CCNE1” value (HCT116 cells) was 1.075. For the same substance, the “RQ CDC42” value (HCT116 cells) was 1.755, the “RQ CDH1” value (HCT116 cells) was 3.7 and 3.659 and the “RQ CDK2” value (HCT116 cells) was 1.467. For the same substance, the “RQ CDK4” value (HCT116 cells) was 1.390, the “RQ CDKN1A” value (HCT116 cells) was 1.331 and the “RQ CDKN1B” value (HCT116 cells) was 1.039. The “RQ CDKN2A” value (HCT116 cells) was 2.5 and 2.469, the “RQ CRK” value (HCT116 cells) was 1.184 and the “RQ CTNNB1” value (HCT116 cells) was 1.131. The “RQ CYCS” value (HCT116 cells) was 2.0 and 1.961, the “RQ DVL1” value (HCT116 cells) was 1.576 and the “RQ E2F1” value (HCT116 cells) was 1.631. For the same substance, the “RQ EGFR” value (HCT116 cells) was 1.3 and 1.294, the “RQ ELK1” value (HCT116 cells) was 1.275 and the “RQ ERBB2” value (HCT116 cells) was 1.941. For the same substance, the “RQ FADD” value (HCT116 cells) was 0.6 and 0.556, the “RQ FAS” value (HCT116 cells) was 1.496 and the “RQ FGF2” value (HCT116 cells) was 1.120. The “RQ FN1” value (HCT116 cells) was 3.8 and 3.841, the “RQ FOS” value (HCT116 cells) was 11.9 and 11.943 and the “RQ FYN” value (HCT116 cells) was 2.5 and 2.474. The “RQ FZD1” value (HCT116 cells) was 2.3 and 2.253, the “RQ GRB2” value (HCT116 cells) was 0.961 and the “RQ GSK3B” value (HCT116 cells) was 1.191. For the same substance, the “RQ GUSB” value (HCT116 cells) was 4.5, the “RQ HRAS” value (HCT116 cells) was 0.777 and the “RQ IGF1R” value (HCT116 cells) was 2.3 and 2.283. For the same substance, the “RQ ITGA2B” value (HCT116 cells) was 3.1 and 3.092, the “RQ ITGAV” value (HCT116 cells) was 1.4 and 1.426 and the “RQ ITGB1” value (HCT116 cells) was 0.838. The “RQ JUN” value (HCT116 cells) was 3.7 and 3.708, the “RQ KDR” value (HCT116 cells) was 4.4 and 4.404 and the “RQ KRAS” value (HCT116 cells) was 0.886. The “RQ MAP2K1” value (HCT116 cells) was 0.8 and 0.822, the “RQ MAP3K5” value (HCT116 cells) was 0.3 and 0.308 and the “RQ MAPK1” value (HCT116 cells) was 1.305. For the same substance, the “RQ MAPK3” value (HCT116 cells) was 2.0 and 2.014, the “RQ MAPK8” value (HCT116 cells) was 1.411 and the “RQ MAPK14” value (HCT116 cells) was 1.008. The “RQ MAX” value (HCT116 cells) was 3.6 and 3.614, the “RQ MDM2” value (HCT116 cells) was 0.794 and the “RQ MYC” value (HCT116 cells) was 1.065. The “RQ NFKB1” value (HCT116 cells) was 1.288, the “RQ NFKB2” value (HCT116 cells) was 1.340 and the “RQ NFKBIA” value (HCT116 cells) was 2.0 and 2.007. The “RQ NRAS” value (HCT116 cells) was 1.178, the “RQ PIK3CA” value (HCT116 cells) was 0.880 and the “RQ PIK3R1” value (HCT116 cells) was 2.5 and 2.456. For the same substance, the “RQ PTEN” value (HCT116 cells) was 2.0 and 2.037, the “RQ PTK2” value (HCT116 cells) was 1.6 and 1.561 and the “RQ PTK2B” value (HCT116 cells) was 2.3 and 2.270. For the same substance, the “RQ RAC1” value (HCT116 cells) was 1.1 and 1.059, the “RQ RAF1” value (HCT116 cells) was 2.0 and 1.951 and the “RQ RB1” value (HCT116 cells) was 1.003. The “RQ RELA” value (HCT116 cells) was 1.390, the “RQ RHOA” value (HCT116 cells) was 1.129 and the “RQ SHC1” value (HCT116 cells) was 0.4 and 0.436. The “RQ SMAD4” value (HCT116 cells) was 1.4 and 1.409, the “RQ SOS1” value (HCT116 cells) was 1.2 and 1.161 and the “RQ SPP1” value (HCT116 cells) was 2.5. For the same substance, the “RQ SRC” value (HCT116 cells) was 1.584, the “RQ TGFB1” value (HCT116 cells) was 0.911 and the “RQ TGFBR1” value (HCT116 cells) was 1.324. The “RQ TGFBR2” value (HCT116 cells) was 2.4 and 2.358, the “RQ TP53” value (HCT116 cells) was 3.5 and 3.478 and the “RQ VEGFA” value (HCT116 cells) was 1.664. For the same substance, the “more potent than metal-free piplartine” value ([1]; B16-F10, IC50 72h) was 4 fold, the “Selectivity index (SI)” value ([1]; SI = IC50[MRC-5]/IC50[B16-F10]) was 1.2 and the “Selectivity index (SI)” value ([1]; SI = IC50[PBMC]/IC50[B16-F10]) was 0.6. The IC50 ([2]; 3D spheroids of HCT116, 72 h treatment, alamar blue, read-out: IC50) was 7.3 µM, the “more potent than metal-free piplartine” value ([2]; 3D spheroids of HCT116, IC50 72 h) was “approximately 3 fold” and the IC50 [3] was 2.4 µM.
